Assays:
barnyardgrass [1] = assay: Test C postemergence; format: in vivo, Echinochloa crusgalli; conditions: 10 days, 0 to 100 scale (0 no effect, 100 complete control)
In short: (§1)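 Soil-applied (pre) and foliar (post, 1–2 leaf, 2–10 cm) sprays; surfactant-containing non-phytotoxic solvent vehicle; loam/sand substrate. Readout: visual % control at 10 d, greenhouse, versus untreated.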

ryegrass, Italian [2] = assay: Test C preemergence; format: in vivo, Lolium multiflorum; conditions: preemergence, 0 to 100 scale (0 no effect, 100 complete control)
In short: as §1

green foxtail [3] = assay: Test C postemergence; format: in vivo, Setaria viridis; conditions: 10 days, 0 to 100 scale (0 no effect, 100 complete control)
In short: as §1

blackgrass [4] = assay: Test C postemergence; format: in vivo, Alopecurus myosuroides; conditions: 10 days, 0 to 100 scale (0 no effect, 100 complete control)
In short: as §1

green foxtail [5] = assay: Test C preemergence; format: in vivo, Setaria viridis; conditions: preemergence, 0 to 100 scale (0 no effect, 100 complete control)
In short: as §1

wheat [6] = assay: Test C preemergence; format: in vivo, Triticum aestivum; conditions: preemergence, 0 to 100 scale (0 no effect, 100 complete control)
In short: as §1

ryegrass, Italian [7] = assay: Test C postemergence; format: in vivo, Lolium multiflorum; conditions: 10 days, 0 to 100 scale (0 no effect, 100 complete control)
In short: as §1

ducksalad = assay: Test D flooded paddy test; format: in vivo, Heteranthera limosa; conditions: 250 g ai/ha, applied to paddy water, visual rating after 13 to 14 days, scale 0 to 100 (0 no effect, 100 complete control)
In short: (§2)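 Plants grown to the 2-leaf stage; pots flooded to 3 cm above soil at treatment and held at that depth throughout. Test compounds applied directly to the paddy water. After 13 to 14 days in a greenhouse, response was rated visually versus controls on a 0 (no effect) to 100 (complete control) scale.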

ragweed [8] = assay: Test C postemergence; format: in vivo, Ambrosia artemisiifolia; conditions: 10 days, 0 to 100 scale (0 no effect, 100 complete control)
In short: as §1

corn [9] = assay: Test C preemergence; format: in vivo, Zea mays; conditions: preemergence, 0 to 100 scale (0 no effect, 100 complete control)
In short: as §1

soybean [10] = assay: Test C preemergence; format: in vivo, Glycine max; conditions: preemergence, 0 to 100 scale (0 no effect, 100 complete control)
In short: as §1

galium = assay: Test C postemergence; format: in vivo, Galium aparine; conditions: 10 days, 0 to 100 scale (0 no effect, 100 complete control)
In short: as §1

ragweed [11] = assay: Test C preemergence; format: in vivo, Ambrosia artemisiifolia; conditions: preemergence, 0 to 100 scale (0 no effect, 100 complete control)
In short: as §1

oat, wild [12] = assay: Test C postemergence; format: in vivo, Avena fatua; conditions: 10 days, 0 to 100 scale (0 no effect, 100 complete control)
In short: as §1

blackgrass [13] = assay: Test C preemergence; format: in vivo, Alopecurus myosuroides; conditions: preemergence, 0 to 100 scale (0 no effect, 100 complete control)
In short: as §1

kochia [14] = assay: Test C preemergence; format: in vivo, Bassia scoparia; conditions: preemergence, 0 to 100 scale (0 no effect, 100 complete control)
In short: as §1

pigweed, palmer [15] = assay: Test C postemergence; format: in vivo, Amaranthus palmeri; conditions: 10 days, 0 to 100 scale (0 no effect, 100 complete control)
In short: as §1

rice = assay: Test D flooded paddy test; format: in vivo, Oryza sativa; conditions: 250 g ai/ha, applied to paddy water, visual rating after 13 to 14 days, scale 0 to 100 (0 no effect, 100 complete control)
In short: as §2

soybean [16] = assay: Test C postemergence; format: in vivo, Glycine max; conditions: 10 days, 0 to 100 scale (0 no effect, 100 complete control)
In short: as §1

corn [17] = assay: Test C postemergence; format: in vivo, Zea mays; conditions: 10 days, 0 to 100 scale (0 no effect, 100 complete control)
In short: as §1

barnyardgrass [18] = assay: Test C preemergence; format: in vivo, Echinochloa crusgalli; conditions: preemergence, 0 to 100 scale (0 no effect, 100 complete control)
In short: as §1

horseweed = assay: Test C postemergence; format: in vivo, Erigeron canadensis; conditions: 10 days, 0 to 100 scale (0 no effect, 100 complete control)
In short: as §1

wheat [19] = assay: Test C postemergence; format: in vivo, Triticum aestivum; conditions: 10 days, 0 to 100 scale (0 no effect, 100 complete control)
In short: as §1

pigweed, palmer [20] = assay: Test C preemergence; format: in vivo, Amaranthus palmeri; conditions: preemergence, 0 to 100 scale (0 no effect, 100 complete control)
In short: as §1

barnyardgrass [21] = assay: Test D flooded paddy test; format: in vivo, Echinochloa crus-galli; conditions: 250 g ai/ha, applied to paddy water, visual rating after 13 to 14 days, scale 0 to 100 (0 no effect, 100 complete control)
In short: as §2

sedge, umbrella = assay: Test D flooded paddy test; format: in vivo, Cyperus difformis; conditions: 250 g ai/ha, applied to paddy water, visual rating after 13 to 14 days, scale 0 to 100 (0 no effect, 100 complete control)
In short: as §2

oat, wild [22] = assay: Test C preemergence; format: in vivo, Avena fatua; conditions: preemergence, 0 to 100 scale (0 no effect, 100 complete control)
In short: as §1

kochia [23] = assay: Test C postemergence; format: in vivo, Bassia scoparia; conditions: 10 days, 0 to 100 scale (0 no effect, 100 complete control)
In short: as §1

With `Cc1cccc2c1OC(C(F)(F)F)CN2C(=O)c1cccc(-n2cnc(C(C)C)n2)c1` (single isomer, unassigned) [Compound 303] the “Plant response rating, Barnyardgrass” value (barnyardgrass [1]; 500 g ai/ha, postemergence) was 70, the “Plant response rating, Barnyardgrass” value (barnyardgrass [1]; Postemergence, 125 g ai/ha) was 20 and the “Ryegrass, Italian plant response rating” value (ryegrass, Italian [2]; 500 g ai/ha) was 100. For the same compound, the “Ryegrass, Italian plant response rating” value (ryegrass, Italian [2]; Test C, 125 g ai/ha) was 90, the “Plant response rating, Foxtail, Green” value (green foxtail [3]; 500 g ai/ha, postemergence) was 80 and the “Plant response rating, Foxtail, Green” value (green foxtail [3]; Postemergence, 125 g ai/ha) was 50. The “Plant response rating, Blackgrass” value (blackgrass [4]; 500 g ai/ha, postemergence) was 100, the “Plant response rating, Blackgrass” value (blackgrass [4]; Postemergence, 125 g ai/ha) was 90 and the “Foxtail, Green plant response rating” value (green foxtail [5]; 500 g ai/ha) was 100. For the same compound, the “Foxtail, Green plant response rating” value (green foxtail [5]; Test C, 125 g ai/ha) was 100, the “Wheat plant response rating” value (wheat [6]; 500 g ai/ha) was 100 and the “Wheat plant response rating” value (wheat [6]; Test C, 125 g ai/ha) was 70. For the same compound, the “Plant response rating, Ryegrass, Italian” value (ryegrass, Italian [7]; 500 g ai/ha, postemergence) was 90, the “Plant response rating, Ryegrass, Italian” value (ryegrass, Italian [7]; Postemergence, 125 g ai/ha) was 60 and the “Plant response rating, Ducksalad (Flood)” value (ducksalad) was 80. The “Plant response rating, Ragweed” value (ragweed [8]; 500 g ai/ha, postemergence) was 60, the “Plant response rating, Ragweed” value (ragweed [8]; Postemergence, 125 g ai/ha) was 50 and the “Corn plant response rating” value (corn [9]; 500 g ai/ha) was 50. The “Corn plant response rating” value (corn [9]; Test C, 125 g ai/ha) was 0, the “Soybean plant response rating” value (soybean [10]; 500 g ai/ha) was 100 and the “Soybean plant response rating” value (soybean [10]; Test C, 125 g ai/ha) was 30. The “Plant response rating, Galium” value (galium; 500 g ai/ha, postemergence) was 100, the “Plant response rating, Galium” value (galium; Postemergence, 125 g ai/ha) was 100 and the “Ragweed plant response rating” value (ragweed [11]; 500 g ai/ha) was 70. For the same compound, the “Ragweed plant response rating” value (ragweed [11]; Test C, 125 g ai/ha) was 0, the “Plant response rating, Oat, Wild” value (oat, wild [12]; 500 g ai/ha, postemergence) was 70 and the “Plant response rating, Oat, Wild” value (oat, wild [12]; Postemergence, 125 g ai/ha) was 50. For the same compound, the “Blackgrass plant response rating” value (blackgrass [13]; 500 g ai/ha) was 100, the “Blackgrass plant response rating” value (blackgrass [13]; Test C, 125 g ai/ha) was 90 and the “Kochia plant response rating” value (kochia [14]; 500 g ai/ha) was 100. For the same compound, the “Kochia plant response rating” value (kochia [14]; Test C, 125 g ai/ha) was 70, the “Plant response rating, Pigweed, Palmer” value (pigweed, palmer [15]; 500 g ai/ha, postemergence) was 80 and the “Plant response rating, Pigweed, Palmer” value (pigweed, palmer [15]; Postemergence, 125 g ai/ha) was 40. For the same compound, the “Plant response rating, Rice (Flood)” value (rice) was 0, the “Plant response rating, Soybean” value (soybean [16]; 500 g ai/ha, postemergence) was 100 and the “Plant response rating, Soybean” value (soybean [16]; Postemergence, 125 g ai/ha) was 100. For the same compound, the “Plant response rating, Corn” value (corn [17]; 500 g ai/ha, postemergence) was 80, the “Plant response rating, Corn” value (corn [17]; Postemergence, 125 g ai/ha) was 20 and the “Barnyardgrass plant response rating” value (barnyardgrass [18]; 500 g ai/ha) was 100. For the same compound, the “Barnyardgrass plant response rating” value (barnyardgrass [18]; Test C, 125 g ai/ha) was 40, the “Plant response rating, Horseweed” value (horseweed; 500 g ai/ha, postemergence) was 20 and the “Plant response rating, Horseweed” value (horseweed; Postemergence, 125 g ai/ha) was 0. The “Plant response rating, Wheat” value (wheat [19]; 500 g ai/ha, postemergence) was 50, the “Plant response rating, Wheat” value (wheat [19]; Postemergence, 125 g ai/ha) was 30 and the “Pigweed, Palmer plant response rating” value (pigweed, palmer [20]; 500 g ai/ha) was 100. For the same compound, the “Pigweed, Palmer plant response rating” value (pigweed, palmer [20]; Test C, 125 g ai/ha) was 100, the “Plant response rating, Barnyardgrass (Flood)” value (barnyardgrass [21]) was 0 and the “Plant response rating, Sedge, Umbrella (Flood)” value (sedge, umbrella) was 90. For the same compound, the “Oat, Wild plant response rating” value (oat, wild [22]; 500 g ai/ha) was 90, the “Oat, Wild plant response rating” value (oat, wild [22]; Test C, 125 g ai/ha) was 50 and the “Plant response rating, Kochia” value (kochia [23]; 500 g ai/ha, postemergence) was 80. The “Plant response rating, Kochia” value (kochia [23]; Postemergence, 125 g ai/ha) was 70.

— patent US20260262643A1, “HERBICIDAL BENZOXAZINES” (FMC CORPORATION, priority 2022, published 2026)
